Like-named read-outs stand apart in the source and are kept apart here.
How the values were obtained:
Taq DNA polymerase = Taq DNA polymerase (Thermus aquaticus, UniProt P19821); assay: Primer extension with Taq DNA polymerase at room temperature; settings: 25 units of enzyme
Text: The extension experiments were repeated with Taq DNA polymerase at room temperature utilizing 25 units of enzyme and either 3′-THF-dTTP or 3′-Ac-dTTP.

[1] = biological target: Klenow (exo-) DNA polymerase (Escherichia coli, UniProt P00582, D355A/E357A); settings: for substrate for Klenow (exo-) DNA polymerase (incorporation into the primer): room temperature, unheated 3′-substituted dTTP; for substrate for Klenow (exo-) DNA polymerase (incorporation and extension): after a 40 minute preheating step at 95° C.
Procedure: The ability of Klenow (exo-) DNA polymerase to perform room temperature primer extensions of a pre-annealed primer/template duplex was evaluated in 50 mM NaCl, 10 mM Tris-HCl (pH 7.9), 10 mM MgCl, 1 mM DTT, 0.5 units of enzyme, 0.2 mM dATP and in the presence of one of the following 3′-substituted dTTP derivatives: 3′-THP-dTTP, 3′-MTHP-dTTP or 3′-THF-dTTP (FIG. 4 (top)).

[2] = for Concentration of unmodified dTTP: 250 μM solution of 3′-substituted dTTP, 95° C., PCR buffer (pH 8.4 at 25° C.); for cleavage of the 3′-ester group: within 60 minutes of incubation
Procedure: Conversion of the 3′-substituted dTTP to the corresponding unmodified dTTP was investigated in PCR buffer (pH 8.4 at 25° C., Table 1) at 20° C. and 95° C. The reactions were monitored by analysis of the incubated mixtures by reverse-phase and anion-exchange HPLC.

[3] = tested on: Lambda DNA and HIV-1 DNA systems; settings: one 3′-substituted dTTP derivative in place of natural dTTP; compared to all four natural dNTPs
Procedure: For the Lambda DNA and HIV-1 DNA systems (Table 2), PCR conditions were used where non-specific amplification products, including primer dimers, readily formed in the presence of template. These conditions employed 1 μM concentration of both the forward and reverse oligonucleotide primers, 10 HIV-1 or 10,000 Lambda DNA copies of template, 0.2 mM each of dNTP or 3′-substituted dNTP, and 2.0 mM MgCl2. Each mixture contained 50 ng of Human Genomic DNA. The thermal cycling parameters were as follows: 95° C. for 2 min; 40 cycles of [95° C. for 40 sec; 56° C. for 30 sec; 72° C. for 2 min]; 72° C. for 7 min.

[4] = tested on: HIV-1 system (365 bp HIV-1 fragment); assay: Hot Start PCR with 3′-THF-dNTPs substituted for natural dNTPs; assay type: biochemical; settings: 3′-THF dNTP substituted for its natural dNTP
Procedure: Each mixture contained 50 ng of Human Genomic DNA.
All permutations of substitution of one, two, three or four 3′-THF-dNTPs (from the group of 3′-THF-dATP, […], 3′-THF-dCTP and 3′-THF-dTTP) were examined for their natural counterpart and the resultant effect on reducing primer dimer formation. […] A combined substitution of two or more 3′-THF derivatives of dNTPs for natural dNTPs further improved PCR performance. Thus, combination of 3′-THF-dTTP and 3′-THF-dATP, as a replacement for dTTP and dATP, nearly completely eliminated non-specific amplification products in the HIV-1 system (approximately 10-fold improvement, FIG. 7). Overall, there was a strong correlation between using more than one type of 3′-substituted dNTP in a PCR mixture with an efficiency and specificity of amplicon production.

Sequence of Klenow (exo-) DNA polymerase (P00582 324-928 D355A/E357A): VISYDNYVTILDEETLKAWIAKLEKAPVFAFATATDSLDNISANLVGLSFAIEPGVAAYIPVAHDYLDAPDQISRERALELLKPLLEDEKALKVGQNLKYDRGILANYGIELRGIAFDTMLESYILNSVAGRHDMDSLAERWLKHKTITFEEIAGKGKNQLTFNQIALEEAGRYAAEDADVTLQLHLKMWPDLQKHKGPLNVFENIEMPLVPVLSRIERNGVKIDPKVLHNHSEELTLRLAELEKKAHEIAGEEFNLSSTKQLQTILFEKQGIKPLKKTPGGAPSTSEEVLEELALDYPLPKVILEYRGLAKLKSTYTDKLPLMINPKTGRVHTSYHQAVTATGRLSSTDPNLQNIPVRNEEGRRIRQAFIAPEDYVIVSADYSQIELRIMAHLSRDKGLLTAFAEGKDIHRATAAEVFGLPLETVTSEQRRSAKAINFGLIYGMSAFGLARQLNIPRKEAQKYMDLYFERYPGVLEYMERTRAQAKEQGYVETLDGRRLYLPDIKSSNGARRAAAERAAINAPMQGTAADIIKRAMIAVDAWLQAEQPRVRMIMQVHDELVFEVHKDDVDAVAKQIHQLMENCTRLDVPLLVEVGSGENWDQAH
Sequence of Taq DNA polymerase (P19821 whole entry): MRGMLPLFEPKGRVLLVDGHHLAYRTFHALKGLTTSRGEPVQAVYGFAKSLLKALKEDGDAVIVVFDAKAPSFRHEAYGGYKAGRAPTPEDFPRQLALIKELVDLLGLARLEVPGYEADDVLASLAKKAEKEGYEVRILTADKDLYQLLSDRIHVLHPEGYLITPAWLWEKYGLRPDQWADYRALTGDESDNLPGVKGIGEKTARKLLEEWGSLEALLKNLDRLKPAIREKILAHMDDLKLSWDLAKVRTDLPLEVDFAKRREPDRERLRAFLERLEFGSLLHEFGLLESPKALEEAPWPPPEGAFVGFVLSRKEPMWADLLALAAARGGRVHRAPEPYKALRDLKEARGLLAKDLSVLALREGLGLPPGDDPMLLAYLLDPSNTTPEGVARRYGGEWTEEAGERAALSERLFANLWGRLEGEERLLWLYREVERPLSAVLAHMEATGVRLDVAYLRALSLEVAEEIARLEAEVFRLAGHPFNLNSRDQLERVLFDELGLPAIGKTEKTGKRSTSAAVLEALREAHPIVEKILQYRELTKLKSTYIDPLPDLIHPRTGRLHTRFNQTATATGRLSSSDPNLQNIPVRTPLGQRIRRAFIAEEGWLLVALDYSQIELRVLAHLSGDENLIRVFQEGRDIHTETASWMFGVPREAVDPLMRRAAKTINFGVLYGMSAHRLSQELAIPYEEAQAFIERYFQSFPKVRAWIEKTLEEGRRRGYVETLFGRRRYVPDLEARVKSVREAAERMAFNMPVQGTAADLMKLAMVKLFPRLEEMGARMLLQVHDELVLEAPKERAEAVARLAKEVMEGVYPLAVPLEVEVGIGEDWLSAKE

Structure (SMILES) | substrate for Taq DNA polymerase (Taq DNA polymerase) | substrate for Klenow (exo-) DNA polymerase (incorporation into the primer) [1] | Concentration of unmodified dTTP ([2]; 2 min) | Concentration of unmodified dTTP ([2]; 10 min) | Concentration of unmodified dTTP ([2]; 20 min) | cleavage of the 3′-acetyl group ([2]; PCR buffer, room temperature, after 24 hours of incubation) | overall PCR performance [3] | substrate for Klenow (exo-) DNA polymerase (incorporation and extension) [1] | cleavage of the 3′-ester group ([2]; PCR buffer, room temperature) | PCR performance (non-specific amplification products, specific amplicon formation) [4]
CC(=O)OC1CC(n2cc(C)c(=O)[nH]c2=O)OC1COP(=O)(O)OP(=O)(O)OP(=O)(O)O (stereo not drawn) [3′-Ac-dTTP, 3′-O-acetyl-dTTP] | not substrates | not a substrate | 0 µM | 5 µM | 18 µM | 6% | not as good as with natural dTTP | – | – | –
COC1(O[C@H]2C[C@H](n3cc(C)c(=O)[nH]c3=O)O[C@@H]2COP(=O)(O)OP(=O)(O)OP(=O)(O)O)CCOCC1 [3′-MTHP-dTTP] | – | not substrates | 2 µM | 21 µM | 47 µM | – | – | became substrates for enzyme | – | –
COCC(=O)O[C@H]1C[C@H](n2cc(C)c(=O)[nH]c2=O)O[C@@H]1COP(=O)(O)OP(=O)(O)OP(=O)(O)O [3′-O[CH3OAc]] | – | – | 35 µM | 140 µM | 195 µM | – | – | – | 4% | –
Cc1cn([C@H]2C[C@H](OC(=O)COc3ccccc3)[C@@H](COP(=O)(O)OP(=O)(O)OP(=O)(O)O)O2)c(=O)[nH]c1=O [3′-O[PhOAc]] | – | – | 50 µM | 170 µM | 209 µM | – | – | – | 10% | –
Nc1ncnc2c1ncn2C1CC(OC2CCCO2)C(COP(=O)(O)OP(=O)(O)OP(=O)(O)O)O1 (stereo not drawn) [3′-THF-dATP] | – | – | – | – | – | – | – | – | – | strong reduction of both non-specific amplification products and an increase of specific amplicon formation
Cc1cn([C@H]2C[C@H](OC3CCCO3)[C@@H](COP(=O)(O)OP(=O)(O)OP(=O)(O)O)O2)c(=O)[nH]c1=O (stereo partly drawn) [3′-THF-dTTP] | not substrates | not substrates | 7 µM | 39 µM | 57 µM | – | – | became substrates for enzyme | – | –
Cc1cn([C@H]2C[C@H](OC3CCCCO3)[C@@H](COP(=O)(O)OP(=O)(O)OP(=O)(O)O)O2)c(=O)[nH]c1=O (stereo partly drawn) [3′-THP-dTTP] | – | not substrates | ≦1 μM | 10 µM | 16 µM | – | not as good as with natural dTTP | became substrates for enzyme | – | –
